{"source": "patent US8530179B2", "about": "“Electrochemical methods of detecting cancer with 4-aminophenyl phosphate” (Ramot at Tel-Aviv University Ltd, priority 2007, dated 2013)", "test_system": "HT-29 colon cancer cells", "test": "Amperometric measurement of induced alkaline phosphatase activity in HT-29 cells on the electrochemical array chip (substrate p-APP, 220 mV)", "format": "cell-based, human", "details": "for induced alkaline phosphatase enzymatic activity (amperometric current): exposed for 96 hours, substrate PAPP, 220 mV", "procedure": "HT-29 human colon cancer cells were grown in DMEM medium in the presence of fetal bovine serum at 37° C. in 95% air, 5% CO2 for 3 days prior to butyrate treatment. Butyrate at different concentrations was added to the HT-29 cell cultures. Concentrations applied were: 0, 0.078, 0.156, 0.3125, 0.625, 1.25, 2.5, 5 and 10 mM. Optimal butyrate concentration, LC50 and viability were calculated accordingly. The measurements were performed in PBS with the intact cells and without additional treatment of the cancer cells such as lysis.\nBA (Sigma, Israel) ranging between 0.08-10 mM were introduced to HT-29 colon cancer cells and incubated for 72 h for optimization. BA at a constant concentration of 2.5 mM was applied in all electrochemical experiments. BA derivatives, butyroylmethyl-diethyl phosphate, and pivaloyloxymethyl butyrate, were synthesized as described [Rephaeli A, Zhuk R, Nudelman A, 2000, Drug Develop. Res. Vol 50:379-391]. Butyroylmethyl-diethyl phosphate was solubilized in PBS and pivaloyloxymethyl butyrate in DMSO followed by dilution with medium to a final DMSO concentration of ≦0.1%. The prodrugs were then introduced to the cells at a constant concentration of 50 μM and incubated for 96 h at 37° C. in 95% air, 5% CO2 conditions. Following incubation with the differentiation agents, viable cells were counted by tripa blue exclusion and tested for viability and LC50 calculations. Prior to all electrochemical measurement, cells were centrifuged and diluted in PBS. All measurements were performed in PBS. The influence of BA, pivaloyloxymethyl butyrate and butyroylmethyl-diethyl phosphate were examined by measuring the enzymatic activity of alkaline phosphatase.\nAmperometric enzyme measurements were performed with the electrochemical substrate, p-APP. The enzymatic reaction product, aminophenol (p-AP), is oxidized at the gold working electrode at 220 mV and the generated current was measured. Eight-channeled 100 nL volume electrochemical chambers were loaded with HT-29 cancer cells, that were treated with BA or its derivatives. Cells were placed into the electrochemical chambers and the substrate was added to 1 mg/ml final concentration at a total volume of 100 nL. The generated current was measured and the number of cells was counted under the microscope. The correlation between cell number and current density was analyzed.\nHT-29 colon cancer cells were exposed for 96 hours to various differentiation therapy agents and the induced alkaline phosphatase activity was measured. […]\nIn order to further examine the sensitivity of the biochip, increasing numbers of HT-29 colon cancer cells were incubated with butyroylmethyl-diethyl phosphate for different lengths of time. The amount of endogenous alkaline phosphatase was measured using the biochip of the present invention.", "data": [{"smiles": "CCCC(=O)O", "note": "[BA, Butyric acid]", "values": [{"measurement": "induced alkaline phosphatase enzymatic activity (amperometric current)", "setting": "2.5 mM", "value": "induced enzymatic activity of alkaline phosphatase"}]}, {"smiles": "CCCC(=O)OCOP(=O)(OCC)OCC", "note": "[butyroylmethyl-diethyl phosphate]", "values": [{"measurement": "induced alkaline phosphatase enzymatic activity (amperometric current)", "setting": "50 μM", "value": "induced enzymatic activity of alkaline phosphatase"}, {"measurement": "effect on cancer cells (alkaline phosphatase current signal) versus incubation time", "setting": "eight, seventy eight and ninety six hour treatment, increasing cell numbers", "value": "increased as incubation time increased"}]}, {"smiles": "CCCC(=O)OCOC(=O)C(C)(C)C", "note": "[pivaloyloxymethyl butyrate]", "values": [{"measurement": "induced alkaline phosphatase enzymatic activity (amperometric current)", "setting": "50 μM", "value": "did not induce any enzyme activity"}]}]}
